target: T1, IKKβ (Homo sapiens, UniProt O14920); assay: biochemical
T1 construct: gene IKBKB
T1 sequence (O14920 1-756): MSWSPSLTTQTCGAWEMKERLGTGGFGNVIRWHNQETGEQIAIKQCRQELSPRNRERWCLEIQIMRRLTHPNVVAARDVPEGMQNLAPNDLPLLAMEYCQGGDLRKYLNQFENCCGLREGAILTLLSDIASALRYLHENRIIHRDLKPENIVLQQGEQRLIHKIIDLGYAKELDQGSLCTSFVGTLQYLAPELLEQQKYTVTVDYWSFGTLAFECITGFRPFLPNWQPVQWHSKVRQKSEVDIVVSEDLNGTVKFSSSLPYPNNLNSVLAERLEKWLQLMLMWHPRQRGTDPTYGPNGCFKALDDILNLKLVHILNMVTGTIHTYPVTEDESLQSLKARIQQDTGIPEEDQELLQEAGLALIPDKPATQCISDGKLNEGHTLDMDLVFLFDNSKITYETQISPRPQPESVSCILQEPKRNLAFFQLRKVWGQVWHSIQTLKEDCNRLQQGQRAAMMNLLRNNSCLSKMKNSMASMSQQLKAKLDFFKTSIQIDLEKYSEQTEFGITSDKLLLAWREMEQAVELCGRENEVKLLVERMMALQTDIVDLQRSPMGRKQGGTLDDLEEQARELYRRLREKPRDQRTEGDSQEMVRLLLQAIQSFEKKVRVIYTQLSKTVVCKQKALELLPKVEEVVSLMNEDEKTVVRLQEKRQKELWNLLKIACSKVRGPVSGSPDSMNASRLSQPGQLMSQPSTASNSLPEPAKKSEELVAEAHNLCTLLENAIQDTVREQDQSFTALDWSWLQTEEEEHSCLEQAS

Row | Compound | IC50
1 | C[C@H]1[C@H](C)CC[C@]2(C(=O)O)CC[C@]3(C)C(=CC[C@@H]4[C@@]5(C)C[C@@H](O)[C@H](O)C(C)(C)[C@@H]5CC[C@]43C)[C@H]12 [CA, Corosolic Acid] | 89.3 µM
2 | C[C@H]1[C@H](C)CC[C@]2(C(=O)O)CC[C@]3(C)C(=CC[C@@H]4[C@@]5(C)C[C@@H](O)[C@H](O)[C@@](C)(CO)[C@@H]5CC[C@]43C)[C@H]12 [AA, Asiatic Acid] | 95 µM
3 | C[C@H]1[C@H](C)CC[C@]2(C(=O)O)CC[C@]3(C)C(=CC[C@@H]4[C@@]5(C)CC[C@H](O)C(C)(C)[C@@H]5CC[C@]43C)[C@H]12 [UA, Ursolic Acid] | 69 µM
